Bounds are passed on as bounds.

As to `CC(=O)Nc1nc2c(Oc3cc(-c4ccc(C(F)(F)F)cc4)nc(-c4cccnc4)n3)cccc2s1` [Example 9], the melting point (in general, the temperature of the solid-liquid transition) was 268 to 270 °C.

For the compound `CC(=O)Nc1nc2c(Oc3cc(-c4ccc(C(F)(F)F)cc4)nc(N4CCN(C(=O)OC(C)(C)C)CC4)n3)cccc2s1` [Example 34, tert-Butyl 4-(4-(2-acetamidobenzo[d]thiazol-4-yloxy)-6-(4-(trifluoromethyl)phenyl)pyrimidin-2-yl)piperazine-1-carboxylate], the melting point stood at 211 °C.

`CC(=O)Nc1nc2c(Oc3cc(-c4ccc(C(F)(F)F)cc4)nc(N4CCCC(O)C4)n3)cccc2s1` (centres unmarked) [Example 39] displayed a melting point of 198 °C.

In the case of `CC(=O)Nc1nc2c(Oc3cc(-c4ccc(C(F)(F)F)cc4)nc(N4CCC(C(=O)O)CC4)n3)cccc2s1` [Example 42, 1-{4-{[2-(acetylamino)-1,3-benzothiazol-4-yl]oxy}-6-[4-(trifluoromethyl)phenyl]pyrimidin-2-yl}piperidine-4-carboxylic acid], the melting point lay in the range of 277 to 278 °C.

The compound `CC(=O)Nc1nc2c(Oc3cc(-c4ccc(C(F)(F)F)cc4)nc(NCc4cccnc4)n3)cccc2s1` [Example 53] gave a melting point of 240 °C.

In turn, `CC(=O)Nc1nc2c(Oc3cc(-c4ccc(C(F)(F)F)cc4)nc(NCC4CCCN(C(=O)OC(C)(C)C)C4)n3)cccc2s1` (centres unmarked) [Example 70] displayed a melting point of 128 °C.

As for `CC(=O)Nc1nc2c(Oc3cc(-c4ccc(C(F)(F)F)cc4)nc(NC[C@@H]4CCCN4C(=O)OC(C)(C)C)n3)cccc2s1` [Example 71, tert-butyl (2S)-2-[({4-{[2-(acetylamino)-1,3-benzothiazol-4-yl]oxy}-6-[4-(trifluoromethyl)phenyl]pyrimidin-2-yl}amino)methyl]pyrrolidine-1-carboxylate], the melting point was determined as 132 °C.

Compound `COCC(C)Nc1nc(Oc2cccc3[nH]c(=O)c(N)nc23)cc(-c2ccc(C(F)(F)F)cc2)n1` (centres unmarked) [Example 109] returned a melting point of 241 °C.

Take `CC(Nc1nc(Oc2cccc3[nH]c(=O)c(N)nc23)cc(-c2ccc(C(F)(F)F)cc2)n1)c1ccccn1` (centres unmarked) [Example 113]: the melting point was 289 °C.

In the case of `COC[C@H](C)Nc1nc(Oc2cccc3[nH]c(=O)c(N)nc23)cc(-c2ccc(C(F)(F)F)cc2)n1` [Example 114], the melting point was 243 °C.

Regarding `CS(=O)(=O)Nc1cccc(CNc2nc(Oc3cccc4[nH]c(=O)c(N)nc34)cc(-c3ccc(C(F)(F)F)cc3)n2)c1` [Example 116, N-{3-[({4-[(3-amino-2-oxo-1,2-dihydroquinoxalin-5-yl)oxy]-6-[4-(trifluoromethyl)phenyl]pyrimidin-2-yl}amino)methyl]phenyl}methanesulfonamide], the melting point was > 300 °C.

For `CS(=O)(=O)N1CCN(c2nc(Oc3cccc4[nH]c(=O)c(N)nc34)cc(-c3ccc(C(F)(F)F)cc3)n2)CC1` [Example 117, 3-amino-5-({2-[4-(methylsulfonyl)piperazin-1-yl]-6-[4-(trifluoromethyl)phenyl]pyrimidin-4-yl}oxy)quinoxalin-2(1H)-one], the melting point is > 300 °C.

For the compound `CC(C)CN1CCCC[C@H]1CNc1nc(Oc2cccc3[nH]c(=O)c(N)nc23)cc(-c2ccc(C(F)(F)F)cc2)n1` [Example 120, (S)-3-Amino-5-(2-((1-isobutylpiperidin-2-yl)methylamino)-6-(4-(trifluoromethyl)phenyl)pyrimidin-4-yloxy)quinoxalin-2(1H)-one], the melting point came out at 228 °C.

`CC(C)CN1CCCC[C@@H]1CNc1nc(Oc2cccc3[nH]c(=O)c(N)nc23)cc(-c2ccc(C(F)(F)F)cc2)n1` [Example 121, (R)-3-Amino-5-(2-((1-isobutylpiperidin-2-yl)methylamino)-6-(4-(trifluoromethyl)phenyl)pyrimidin-4-yloxy)quinoxalin-2(1H)-one] registered a melting point of 229 °C.

For the origin of these results see US7335672B2, “Vanilloid receptor ligands and their use in treatments” (Amgen Inc., priority 2004, dated 2008).
